pIC50: −log10 of the molar value. Where two headings read alike, the source gives them in different places.
Key:
[1] = plasma stability (Plasma Assay Protocol); type: in vitro ADME; details: 37° C., t1/2 extrapolated if >50% remaining at 60 min, ∞ if near 100% remaining
Method: ND refers to not disclosed.
• 1. Preheated 0.05 M sodium phosphate and 0.07 M NaCl buffer, pH 7.4. Dissolved 14.505 g/L Na2HPO4·12H2O, 1.483 g/L NaH2PO4·2H2O and 4.095 g/L NaCl in deionized water. The basic solution was then titrated with the phosphoric acid to pH 7.40. Stored in fridge up to 7 days. Checked pH on the day of experiment and adjust if outside specification of 7.4+/−0.1. • 2. Plasma preparation: • Thawed frozen plasma by placing at 37° C. quickly. Centrifuged plasma at 3,000 rpm for 8 minutes to remove clots, pipetted and pooled the supernatant as the plasma to be used in the experiment. Checked and recorded the pH of the plasma. Only used plasma within the range of pH 7.4 to pH 8. If higher than pH 8, discarded the plasma. By using a 5% CO2 incubator and PBS buffer, a pH of 7.4 was reached after the 4 hour equilibrium dialysis time. Put the plasma on ice until used. • 3. Tested compounds and reference compounds spiking solution: • 0.5 mM test compounds spiking solution A: Added 10 μL of 10 mM test compounds stock solution to 190 μL DMSO. • 0.02 mM spiking solution B: Added 40 μL of spiking solution A to 960 μL of […] Sodium phosphate buffer with 0.5% BSA.
Pre-warmed the plasma and spiking solution B at 37° C. for 5 min. Added 10 μL of pre-warmed spiking solution B into the wells designated for all the time points (5, 15, 30, 45, 60 min).
For 0-min, added 400 μL of acetonitrile (ACN) containing the internal standard (IS) to the wells of 0-min plate and then added 90 μL of plasma. Added 90 μL of pre-warmed plasma into the wells designated for the time points (0, 5, 15, 30, 45, 60 min), and started timing. At 5, 15, 30, 45, 60 min, added 400 μL of ACN containing IS to the wells of corresponding plates, respectively, to stop the reaction. After quenching, shook the plates at the vibrator (IKA, MTS 2/4) for 10 min (600 rpm/min) and then centrifuged at 5594 g for 15 min (Thermo Multifuge×3R). Transferred 50 μL of the supernatant from each well into a 96-well sample plate containing 50 μL of ultra pure water (Millipore ZMQS50F01) for LC/MS analysis.

[2] = mouse liver microsomal stability (Microsome Assay Protocol); type: in vitro ADME; details: pH 7.4; mouse liver microsomes, NADPH, 37° C.; read-out: MLM t1/2, min
Procedure, shortened: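 Compound at 1.5 μM was mixed with 0.75 mg/mL mouse liver microsomes in 0.1 M potassium phosphate, 1.0 mM EDTA, pH 7.4, then started with NADPH from a 6 mM stock after 5 min preincubation at 37 °C. Samples taken at 0, 5, 15, 30 and 45 min were quenched with acetonitrile containing internal standard and analysed by LC/MS.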

[3] = molecular target: T1, USP7, Active human recombinant protein (Homo sapiens, UniProt Q93009); experiment: USP7 assay (Ubiquitin-Rhodamine 110 enzymatic assay); type: biochemical; details: for pIC50: read-out: IC50
T1 construct: purchased CP Lot; 20200225001
Procedure, shortened: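 Kinetic 20-min fluorescence read (485/535 nm) of ubiquitin-rhodamine 110 (190 nM final) cleavage by 0.05 nM USP7 gave slopes. Compounds, 10 concentrations in 3-fold steps, had 15 min RT preincubation with enzyme first. Inhibition relative to max (enzyme+substrate) and min (substrate only) signals, fitted to IC50.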

T1 sequence (Q93009 whole entry): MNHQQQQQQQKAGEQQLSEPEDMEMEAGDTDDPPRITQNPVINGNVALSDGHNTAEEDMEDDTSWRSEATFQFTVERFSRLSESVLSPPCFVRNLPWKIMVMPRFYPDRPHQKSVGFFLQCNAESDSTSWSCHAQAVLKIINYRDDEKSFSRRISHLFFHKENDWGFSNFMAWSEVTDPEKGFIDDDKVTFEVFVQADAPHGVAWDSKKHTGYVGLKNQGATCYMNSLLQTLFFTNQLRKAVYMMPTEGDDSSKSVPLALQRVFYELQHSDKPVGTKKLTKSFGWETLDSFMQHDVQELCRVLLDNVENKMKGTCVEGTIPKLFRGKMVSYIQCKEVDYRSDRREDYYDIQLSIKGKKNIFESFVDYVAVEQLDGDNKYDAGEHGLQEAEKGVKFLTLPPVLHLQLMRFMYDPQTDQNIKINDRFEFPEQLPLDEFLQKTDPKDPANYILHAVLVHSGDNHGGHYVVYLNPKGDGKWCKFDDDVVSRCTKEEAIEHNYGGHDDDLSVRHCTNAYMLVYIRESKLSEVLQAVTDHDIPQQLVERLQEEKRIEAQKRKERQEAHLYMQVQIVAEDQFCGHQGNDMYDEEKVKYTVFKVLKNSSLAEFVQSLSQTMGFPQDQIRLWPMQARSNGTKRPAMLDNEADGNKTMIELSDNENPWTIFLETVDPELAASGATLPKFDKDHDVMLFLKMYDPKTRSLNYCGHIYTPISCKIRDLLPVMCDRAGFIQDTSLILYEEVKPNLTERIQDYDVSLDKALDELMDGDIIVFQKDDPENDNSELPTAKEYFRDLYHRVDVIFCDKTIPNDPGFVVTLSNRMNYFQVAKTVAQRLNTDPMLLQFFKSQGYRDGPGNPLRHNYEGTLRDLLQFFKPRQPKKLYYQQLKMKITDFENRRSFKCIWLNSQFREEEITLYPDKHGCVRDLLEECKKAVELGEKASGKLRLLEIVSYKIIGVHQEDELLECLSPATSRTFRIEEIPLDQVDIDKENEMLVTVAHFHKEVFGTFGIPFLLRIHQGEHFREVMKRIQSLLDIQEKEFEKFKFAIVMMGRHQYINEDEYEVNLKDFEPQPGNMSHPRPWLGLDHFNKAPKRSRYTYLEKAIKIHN

| Structure (SMILES) | half-life at 2 µM [1] | half-life at 1 µM [2] | pIC50 [3] | Plasma t1/2, min [1] | IC50 ([3]; 1 h, read-out: IC50, μM (1 h)) | IC50 ([3]; 6 h, read-out: IC50, μM (6 h)) | IC50 ([3]; 16 h, read-out: IC50, μM (16 h)) |
| --- | --- | --- | --- | --- | --- | --- | --- |
| CN1CCN(CCOc2ccc3c(=O)n(CC4(O)CCN(C(=O)C(CCCNC(=O)c5ccc6c(Cl)ccnc6c5)Cc5ccccc5)CC4)cnc3c2)CC1 (centres unmarked) [Compound 30, N-(4-benzyl-5-(4-hydroxy-4-((7-(2-(4-methylpiperazin-1-yl)ethoxy)-4-oxoquinazolin-3(4H)-yl)methyl)piperidin-1-yl)-5-oxopentyl)-4-chloroquinoline-7-carboxamide] | 112 h | 15.7 min | 7.00 to 7.70 |  |  |  |  |
| CN(C)CCCOc1ccc2c(=O)n(CC3(O)CCN(C(=O)[C@H](CCCNC(=O)c4ccc5c(Cl)c(C(=O)NC6CC6)cnc5c4)Cc4ccccc4)CC3)cnc2c1 | 0.481 h | 44.1 min | > 7.70 |  |  |  |  |
| CN(C)CCOc1ccc2c(=O)n(CC3(O)CCN(C(=O)[C@H](CCCNC(=O)c4ccc5c(Cl)cc(C6CC6)nc5c4)Cc4ccccc4)CC3)cnc2c1 [Compound 117] |  | 20.3 min | 7.00 to 7.70 | ∞* |  |  |  |
| CN1CCN(CCC(=O)Nc2ccc3c(=O)n(CC4(O)CCN(C(=O)C(CCCNC(=O)c5ccc6c(Cl)ccnc6c5)Cc5ccccc5)CC4)cnc3c2)CC1 (centres unmarked) | 5.46 h | 11 min | 7.00 to 7.70 |  |  |  |  |
| C=CS(=O)(=O)Nc1ccccc1-c1ccc(C(=O)N2CCC(O)(Cn3cnc4cc(NC(=O)CCN5CCN(C)CC5)ccc4c3=O)CC2)cc1 [Compound 23, N-(3-((4-hydroxy-1-(2′-(vinylsulfonamido)-[1,1′-biphenyl]-4-carbonyl)piperidin-4-yl)methyl)-4-oxo-3,4-dihydroquinazolin-7-yl)-3-(4-methylpiperazin-1-yl)propanamide] | 0.175 h | 49.3 min | 7.00 to 7.70 |  |  |  |  |
| CN1CCN(CCC(=O)Nc2ccc3c(=O)n(CC4(O)CCN(C(=O)C(CCCNC(=O)c5ccc6c(Cl)cc(C7CC7)nc6c5)Cc5ccccc5)CC4)cnc3c2)CC1 (centres unmarked) [Compound 22] | 2.25 h | 18.3 min | 7.00 to 7.70 |  |  |  |  |
| CN1CCN(CCC(=O)Nc2ccc3c(=O)n(CC4(O)CCN(C(=O)[C@@H](CCCNC(=O)c5ccc6c(Cl)cc(-c7ccc(F)cc7)nc6c5)Cc5ccccc5)CC4)cnc3c2)CC1 [Compound 5, (S)—N-(4-benzyl-5-(4-hydroxy-4-((7-(3-(4-methylpiperazin-1-yl)propanamido)-4-oxoquinazolin-3(4H)-yl)methyl)piperidin-1-yl)-5-oxopentyl)-4-chloro-2-(4-fluorophenyl)quinoline-7-carboxamide] | 5.33 h | 18 min | 6.00 to 7.00 |  |  |  |  |
| CN(C)CCCOc1ccc2c(=O)n(CC3(O)CCN(C(=O)C(CCCNC(=O)c4ccc5c(Cl)c6c(nc5c4)CCCC6)Cn4ccc(F)n4)CC3)cnc2c1 (centres unmarked) | 6.6 h | 2.46 min | > 7.70 |  |  |  |  |
| CN(C)CCC(=O)Nc1ccc2c(=O)n(CC3(O)CCN(C(=O)[C@@H]4CCN(CCNC(=O)c5ccc6c(Cl)ccnc6c5)C[C@H]4c4ccccc4)CC3)cnc2c1 [Compound 75] | 1.12 h | 69.4 min | > 7.70 |  |  |  |  |
| CC(C)c1cnc2cc(C(=O)NCCN3CCC(C(=O)N4CCC(O)(Cn5cnc6cc(OCCN7CCNCC7)ccc6c5=O)CC4)C(c4ccccc4)C3)ccc2c1Cl (centres unmarked) [Compound 108] |  | 14 min | > 7.70 | ∞* |  |  |  |
| CN1CCC(OCCOc2ccc3c(=O)n(CC4(O)CCN(C(=O)[C@H](CCCNC(=O)c5ccc6c(Cl)cc(C7CC7)nc6c5)Cc5ccccc5)CC4)cnc3c2)CC1 [Compound 132] |  | 6.96 min | 7.00 to 7.70 | ∞* |  |  |  |
| CN(C)CCCOc1ccc2c(=O)n(CC3(O)CCN(C(=O)C(CCCNC(=O)c4ccc5c(Cl)cc(C6CC6)nc5c4)Cn4ccc(F)n4)CC3)cnc2c1 (centres unmarked) | 3.14 h | 17 min | > 7.70 |  |  |  |  |
| CN(C)CCOc1cc(F)c2c(=O)n(CC3(O)CCN(C(=O)C4CCN(CCNC(=O)c5ccc6c(Cl)ccnc6c5)CC4c4ccccc4)CC3)cnc2c1 (centres unmarked) [Compound 112] | 5.08 h | 45.3 min | 6.00 to 7.00 |  |  |  |  |
| CN(C)CCCOc1ccc2c(=O)n(CC3(O)CCN(C(=O)[C@@H](CCCNC(=O)c4ccc5c(Cl)c(C(N)=O)cnc5c4)Cn4ccc(F)n4)CC3)cnc2c1 | 1.43 h | 223 min | > 7.70 |  |  |  |  |
| CN1CCN(CCC(=O)Nc2ccc3c(=O)n(CC4(O)CCN(C(=O)[C@@H](CCCNC(=O)c5ccc6c(Cl)cc(-c7cnn(CC(F)(F)F)c7)nc6c5)Cc5ccccc5)CC4)cnc3c2)CC1 [Compound 20] | 3.77 h | 25.8 min | 7.00 to 7.70 |  |  |  |  |
| CN(C)CCC(=O)Nc1ccc2c(=O)n(CC3(O)CCN(C(=O)C(CCCNC(=O)c4ccc5c(F)ccnc5c4)Cc4ccccc4)CC3)cnc2c1 (centres unmarked) [Compound 87] | 1.01 h | 23.2 min | > 7.70 |  |  |  |  |
| CCc1cc(Cl)c2ccc(C(=O)NCCCC(Cc3ccccc3)C(=O)N3CCC(O)(Cn4cnc5cc(NC(=O)CCN(C)C)ccc5c4=O)CC3)cc2n1 (centres unmarked) [Compound 79] | 3.91 h | 10.5 min | 7.00 to 7.70 |  |  |  |  |
| C=CC(=O)Nc1ccccc1N1CCC(C(=O)N2CCC(O)(Cn3cnc4cc(NC(=O)CCN5CCN(C)CC5)ccc4c3=O)CC2)C(c2ccccc2)C1 (centres unmarked) [Compound 102] | 0.0708 h | 26.9 min | 6.00 to 7.00 |  |  |  |  |
| O=C(NCCCC(Cn1ccc(F)n1)C(=O)N1CCC(O)(Cn2cnc3ccccc3c2=O)CC1)c1ccc2c(Cl)c3c(nc2c1)CCCC3 (centres unmarked) | 6.56 h | 0.56 min | > 7.70 |  |  |  |  |
| CN(C)C1CCN(c2ccc3c(=O)n(CC4(O)CCN(C(=O)[C@H](CCCNC(=O)c5ccc6c(Cl)cc(C7CC7)nc6c5)Cc5ccccc5)CC4)cnc3c2)CC1 [Compound 123] | 2.96 h | 24.3 min | > 7.70 |  |  |  |  |
| CN(C)CCC(=O)Nc1ccc2c(=O)n(CC3(O)CCN(C(=O)[C@H](CCCNC(=O)c4ccc5c(Cl)c6c(nc5c4)CCC6)Cc4ccccc4)CC3)cnc2c1 [Compound 114] | 11.7 h | 4.13 min | > 7.70 |  |  |  |  |
| CN(C)CCC(=O)Nc1ccc2c(=O)n(CC3(O)CCN(C(=O)C4CCN(CCNC(=O)c5ccc6c(Cl)ccnc6c5)C[C@H]4c4ccccc4)CC3)cnc2c1 (some centres unmarked) [Compound 73] | 3.19 h | 46.8 min | 7.00 to 7.70 |  |  |  |  |
| C=CC(=O)Nc1ccncc1N1CCC(C(=O)N2CCC(O)(Cn3cnc4cc(NC(=O)CCN5CCN(C)CC5)ccc4c3=O)CC2)C(c2ccccc2)C1 (centres unmarked) [Compound 106] | 0.113 h | 39 min |  |  | 0.1 to 1 µM | < 0.02 µM | < 0.02 µM |
| O=C(NCCN1CCC(C(=O)N2CCC(O)(Cn3cnc4cc(OCCN5CCNCC5)ccc4c3=O)CC2)C(c2ccccc2)C1)c1ccc2c(F)ccnc2c1 (centres unmarked) [Compound 109] | 1.7 h | 22.4 min | > 7.70 |  |  |  |  |

Source: patent publication US20240376076A1, “INHIBITORS TARGETING UBIQUITIN SPECIFIC PROTEASE 7 (USP7)” (Dana-Farber Cancer Institute, Inc., priority 2021, published 2024)
